Test results: patent publication US20170121344A1 (Siga Technologies, Inc., priority 2009, published 2017)
Like-named read-outs stand apart in the source and are kept apart here.

Tested on: Dengue-2 (Strain New Guinea C)
Test: Viral yield assay against Dengue-2 in Vero cells
Format: cell-based, Dengue virus
Details: Dengue virus
Experimental: Compounds that were active in the primary screen were tested for activity in viral yield assays. […] Vero cells in 12-well plates were infected with dengue-2 virus at a multiplicity of infection (MOI) of 0.1, treated with compound (or DMSO as a control), incubated at 37° C., harvested 48 hours post infection and titered on Vero cells as described above. The EC50 was calculated through ExcelFit. Activities against other serotypes of dengue virus were determined in a similar way.

[1] = DENV2, viral yield assay, Vero cells, MOI 0.1, 48 hours post infection, read-out: Activity (EC50 in μM) DENV-2
[2] = Vero cells, MOI 0.1, harvested 48 hours post infection, read-out: Activity (EC50 class) against Dengue-2 Virus in Vero cells
[3] = Vero, 48 h, read-out: Activity (EC50 class) against Dengue-2 Virus in Vero cells

SMILES	EC50 [1]	EC50 [2]	also measured
O=C(Nc1cccc(C(F)(F)F)c1)c1sc2ncccc2c1OCc1ccc(Cl)c(Cl)c1 [Compound 377, 3-[(3,4-dichlorophenyl)methoxy]-N-[3-(trifluoromethyl)phenyl]thieno[2,3-b] pyridine-2-carboxamide]	< 5 µM	–	–
Cc1cnc2sc(C(=O)Nc3nnc(-c4ccccc4)s3)c(N)c2c1 [Compound 286, 3-amino-5-methyl-N-(5-phenyl-1,3,4-thiadiazol-2-yl)thieno[2,3-b]pyridine-2-carboxamide]	< 5 µM	–	–
N#Cc1cc2c(N)c(C(=O)N(c3ccccc3)c3ccccc3)sc2nc1N [Compound 69, 3,6-Diamino-5-cyano-thieno[2,3-b]pyridine-2-carboxylic acid diphenylamide]	–	5 to 25 µM	–
CC(C)N1CCc2nc3sc(C(=O)Nc4ccc(OC(F)(F)F)cc4)c(N)c3cc2C1 [Compound 59, 3-Amino-6-isopropyl-5,6,7,8-tetrahydro-thieno[2,3-b][1,6]naphthyridine-2-carboxylic acid (4-trifluoromethoxy-phenyl)-amide]	–	< 5 µM	–
COc1cccc(-c2ccc3c(N)c(C(=O)Nc4cccc(F)c4C)sc3n2)c1 [Compound 515, 3-amino-N-(3-fluoro-2-methyl-phenyl)-6-(3-methoxyphenyl)thieno[2,3-b] pyridine-2-carboxamide]	< 5 µM	–	–
CN1CCc2nc3sc(C(=O)NC4CC4)c(N)c3cc2C1 [Compound 105, 3-Amino-6-methyl-5,6,7,8-tetrahydro-thieno[2,3-b][1,6]naphthyridine-2-carboxylic acid cyclopropylamide]	–	–	EC50 [3]: 5 to 25 µM
Cc1ccccc1NC(=O)c1sc2nc(-c3ccc(F)cc3)ccc2c1N [Compound 610, 3-amino-6-(4-fluorophenyl)-N-(o-tolyl) thieno[2,3-b]pyridine-2-carboxamide]	< 5 µM	–	–
CN1CCc2nc3sc(C(=O)Nc4cc(Cl)ccc4Cl)c(N)c3cc2C1 [Compound 44, 3-Amino-6-methyl-5,6,7,8-tetrahydro-thieno[2,3-b][1,6]naphthyridine-2-carboxylic acid (2,5-dichloro-phenyl)-amide]	–	< 5 µM	–
COCc1cc(C)nc2sc(C(=O)Nc3cc(Br)cc4cccnc34)c(N)c12 [Compound 146, 3-Amino-4-methoxymethyl-6-methyl-thieno[2,3-b]pyridine-2-carboxylic acid (6-bromo-quinolin-8-yl)-amide]	–	–	EC50 [3]: > 25 µM
Cc1cccc(NC(=O)c2sc3nc(-c4ccc(Cl)cc4)ccc3c2N)c1 [Compound 632, 3-amino-6-(4-chlorophenyl)-N-(m-tolyl)thieno[2,3-b]pyridine-2-carboxamide]	< 5 µM	–	–
Cc1ccc(NC(=O)c2sc3nc(-c4ccc5c(c4)OCO5)ccc3c2N)cc1C [Compound 528, 3-amino-6-(1,3-benzodioxol-5-yl)-N-(3,4-dimethylphenyl)thieno[2,3-b]pyridine-2-carboxamide]	< 5 µM	–	–
CC1(C)CC(=O)c2cc3c(N)c(C(=O)Nc4ccccc4[N+](=O)[O-])sc3nc2C1 [Compound 222, 3-Amino-7,7-dimethyl-5-oxo-5,6,7,8-tetrahydro-thieno[2,3-b]quinoline-2-carboxylic acid (2-nitro-phenyl)-amide]	–	> 25 µM	–
CC(=O)Nc1ccc(NC(=O)c2sc3nc4c(cc3c2N)CCCC4)cc1 [Compound 204, 3-Amino-5,6,7,8-tetrahydro-thieno[2,3-b]quinoline-2-carboxylic acid (4-acetylamino-phenyl)-amide]	–	> 25 µM	–
CCN(CC)C(=O)c1sc2nc3c(cc2c1N)CN(C)CC3 [Compound 15, 3-Amino-6-methyl-5,6,7,8-tetrahydro-thieno[2,3-b][1,6]naphthyridine-2-carboxylic acid diethylamide]	–	< 5 µM	–
Cc1ccc(F)cc1NC(=O)c1sc2nc3c(cc2c1N)CN(C)CC3 [Compound 61, 3-Amino-6-methyl-5,6,7,8-tetrahydro-thieno[2,3-b][1,6]naphthyridine-2-carboxylic acid (5-fluoro-2-methyl-phenyl)-amide]	–	< 5 µM	–
Nc1c(C(=O)Nc2ccc([N+](=O)[O-])cc2)sc2nc3c(cc12)CCC3 [Compound 215, 3-Amino-6,7-dihydro-5H-cyclopenta[b]thieno[3,2-e]pyridine-2-carboxylic acid (4-nitro-phenyl)-amide]	–	> 25 µM	–
COCc1cc(C)nc2sc(C(=O)Nc3ccc(Br)c(Cl)c3)c(N)c12 [Compound 197, 3-Amino-4-methoxymethyl-6-methyl-thieno[2,3-b]pyridine-2-carboxylic acid (4-bromo-3-chloro-phenyl)-amide]	–	–	EC50 [3]: > 25 µM
CCc1nnc(NC(=O)c2sc3nc(C)cc(C(F)(F)F)c3c2N)s1 [Compound 65, 3-Amino-6-methyl-4-trifluoromethyl-thieno[2,3-b]pyridine-2-carboxylic acid (5-ethyl-[1,3,4]thiadiazol-2-yl)-amide]	–	5 to 25 µM	–
O=C(Nc1ccc(OC(F)(F)F)cc1)c1sc2ncccc2c1OCc1ccc(Cl)c(Cl)c1 [Compound 378, 3-[(3,4-dichlorophenyl)methoxy]-N-[4-(trifluoromethoxy)phenyl]thieno[2,3-b] pyridine-2-carboxamide]	< 5 µM	–	–

SMILES	EC50 [1]	EC50 [2]	also measured
Cc1cccc(C)c1NC(=O)c1sc2nc(N)c(C#N)cc2c1N [Compound 127, 3,6-Diamino-5-cyano-thieno[2,3-b]pyridine-2-carboxylic acid (2,6-dimethyl-phenyl)-amide]	–	> 25 µM	–
CC1(C)Cc2nc3sc4c(=O)n(Cc5ccccc5)cnc4c3cc2CO1 [Compound 174, 2-Benzyl-8,8-dimethyl-8,9-dihydro-2H,6H-7-oxa-11-thia-2,4,10-triaza-benzo[b]fluoren-1-one]	–	> 25 µM	–
COc1ccc(NC(=O)c2sc3nc(-c4ccc(F)cc4)ccc3c2N)c(C)c1 [Compound 624, 3-amio-6-(4-fluorophenyl)-N-(4-methoxy-2-methyl-phenyl)thieno[2,3-b] pyridine-2-carboxamide]	< 5 µM	–	–
COc1cccc(-c2ccc3c(N)c(C(=O)Nc4ccc(OC)c(OC)c4)sc3n2)c1 [Compound 508, 3-amino-N-(3,4-dimethoxyphenyl)-6-(3-methoxyphenyl)thieno[2,3-b]pyridine-2-carboxamide]	–	–	EC50 (DENV2, Vero, 48 h, read-out: Activity (EC50 in μM) DENV-2): < 5 µM
COc1ccc(-c2ccc3c(N)c(C(=O)Nc4ccccc4)sc3n2)cc1OC [Compound 634, 3-amino-6-(3,4-dimethoxyphenyl)-N-phenyl-thieno[2,3-b]pyridine-2-carboxamide]	< 5 µM	–	–
Nc1c(C(=O)Nc2cc(Cl)cc(Cl)c2)sc2nc(-c3ccc(F)cc3)ccc12 [Compound 622, 3-amino-N-(3,5-dichlorophenyl)-6-(4-fluorophenyl)thieno[2,3-b]pyridine-2-carboxamide]	< 5 µM	–	–
Cc1cc(C)c2c(N)c(C(=O)NCc3ccco3)sc2n1 [Compound 258, 3-Amino-4,6-dimethyl-thieno[2,3-b]pyridine-2-carboxylic acid (furan-2-ylmethyl)-amide]	–	–	EC50 [3]: > 25 µM
Nc1c(C(=O)Nc2cccc(C(F)(F)F)c2)sc2ncccc12 [Compound 420, 3-amino-N-[3-(trifluoromethyl)phenyl] thieno[2,3-b]pyridine-2-carboxamide]	< 5 µM	–	–
COc1cccc(-c2ccc3c(N)c(C(=O)Nc4ccc(F)cc4Cl)sc3n2)c1 [Compound 557, 3-amino-N-(2-chloro-4-fluoro-phenyl)-6-(3-methoxyphenyl)thieno[2,3-b] pyridine-2-carboxamide]	< 5 µM	–	–
COCc1cc(C)nc2sc3c(=O)[nH]nnc3c12 [Compound 76, 9-Methoxymethyl-7-methyl-3H-pyrido[3′,2′:4,5]thieno[3,2-d][1,2,3]triazin-4-one]	–	5 to 25 µM	–
COc1ccc(C(F)(F)F)cc1NC(=O)c1sc2nc(-c3ccc(OC)c(OC)c3)ccc2c1N [Compound 531, 3-amino-6-(3,4-dimethoxyphenyl)-N-[2-methoxy-5-(trifluoromethyl)phenyl]thieno [2,3-b]pyridine-2-carboxamide]	< 5 µM	–	–
COc1cccc(-c2ccc3c(N)c(C(=O)Nc4cc(C)ccc4C)sc3n2)c1 [Compound 626, 3-amino-N-(2,5-dimethylphenyl)-6-(3-methoxyphenyl)thieno[2,3-b]pyridine-2-carboxamide]	< 5 µM	–	–
COc1ccc(Cl)cc1NC(=O)c1sc2nc(-c3cccs3)ccc2c1N [Compound 460, 3-amino-N-(5-chloro-2-methoxy-phenyl)-6-(2-thienyl)thieno[2,3-b]pyridine-2-carboxamide]	< 5 µM	–	–
Cc1csc(NC(=O)c2sc3nc(C)c4c(c3c2N)CCCC4)n1 [Compound 4, 1-Amino-5-methyl-6,7,8,9-tetrahydro-thieno[2,3-c]isoquinoline-2-carboxylic acid (4-methyl-thiazol-2-yl)-amide]	–	–	EC50 [3]: < 5 µM
CN1CCc2nc3sc(C(=O)Nc4ccccc4F)c(N)c3cc2C1 [Compound 38, 3-Amino-6-methyl-5,6,7,8-tetrahydro-thieno[2,3-b][1,6]naphthyridine-2-carboxylic acid (2-fluoro-phenyl)-amide]	–	< 5 µM	–
Cc1cc(F)ccc1NC(=O)c1sc2nc(-c3ccc4c(c3)OCO4)ccc2c1N [Compound 593, 3-amino-6-(1,3-benzodioxol-5-yl)-N-(4-fluoro-2-methyl-phenyl)thieno[2,3-b] pyridine-2-carboxamide]	< 5 µM	–	–
Nc1c(C(=O)Nc2nccs2)sc2nc(-c3ccccc3)cc(C(F)(F)F)c12 [Compound 192, 3-Amino-6-phenyl-4-trifluoromethyl-thieno[2,3-b]pyridine-2-carboxylic acid thiazol-2-ylamide]	–	> 25 µM	–
Cc1nc2sc(C(N)=O)c(N)c2c(C)c1CC(=O)c1ccccc1 [Compound 72, 3-Amino-4,6-dimethyl-5-(2-oxo-2-phenyl-ethyl)-thieno[2,3-b]pyridine-2-carboxylic acid amide]	–	–	EC50 [3]: 5 to 25 µM
